Like-named read-outs stand apart in the source and are kept apart here.
Tests used:
[1] = test system: HT29 human colon tumor xenografts; assay: Antitumor study, HT29 human colon tumor xenografts; details: HT29
Method: (§1) Compound tolerability and pharmacokinetic investigations were carried out in female BALB/c mice (Charles River). Human tumor xenografts were established s.c. in female CRTac:Ncr-Fox1(nu) athymic mice and treated as previously described. […] Initial treatment groups contained from 6 to 10 mice and animals were inspected daily and tumor size and volume measured every 2 or 3 days. Tumor volume and growth delay were determined as previously described.

[2] = Antitumor study, HT29 human colon tumor xenografts; details: female, mouse, in vivo, iv
Method: as §1

[3] = test system: SW620 colon cancer xenografts; assay: Antitumor study, SW620 colon cancer xenografts; type: in vivo, mice
Method: as §1

Eμ-Myc driven lymphoma = test system: Eμ-Myc driven lymphoma; set-up: method as in PMID 22120667; details: 5mg/kg × 9 days; cited from earlier work
[4] = test system: cellular CHK1 activity, four cell lines; assay: MIA, range over four cell lines; type: cell-based; details: Homo sapiens, read-out: IC50 for cellular CHK1 inhibition (MIA), range
Method: (§2) Assays were performed as described. […] Inhibition of intracellular CHK1 activity was measured using a cell based ELISA for the abrogation of an etoposide induced G2 checkpoint (mitosis induction assay, MIA [24]). The IC50 for G2 checkpoint abrogation (MIA) was determined in the presence of nocodazole using UCN01 as a positive control. […] PI values > 1 indicate potentiation of the genotoxic activity.

[5] = Tumor drug concentration in HT29 xenografts; type: in vivo, mice; details: female, CRTac:Ncr-Fox1(nu) athymic, mouse, oral, 24h following 12.5mg/kg p.o., with gemcitabine
Method: (§3) Human tumor xenografts were established s.c. in female […]) athymic mice and treated as previously described. […] Compounds were extracted from whole blood, plasma and tissue homogenates with methanol-containing internal standards using established protocols. Drug concentrations were determined using liquid chromatography/tandem mass spectrometry (LC/MS-MS) and pharmacokinetics were calculated using Pharsight WinNonLin software (version 5.2.1) as previously described.

CHK2 = molecular target: T1, CHK2 (Homo sapiens, UniProt O96017); assay: CHK2 kinase IC50 determination (Z'-Lyte); type: biochemical
T1 construct: purchased Invitrogen
T1 sequence (O96017 whole entry): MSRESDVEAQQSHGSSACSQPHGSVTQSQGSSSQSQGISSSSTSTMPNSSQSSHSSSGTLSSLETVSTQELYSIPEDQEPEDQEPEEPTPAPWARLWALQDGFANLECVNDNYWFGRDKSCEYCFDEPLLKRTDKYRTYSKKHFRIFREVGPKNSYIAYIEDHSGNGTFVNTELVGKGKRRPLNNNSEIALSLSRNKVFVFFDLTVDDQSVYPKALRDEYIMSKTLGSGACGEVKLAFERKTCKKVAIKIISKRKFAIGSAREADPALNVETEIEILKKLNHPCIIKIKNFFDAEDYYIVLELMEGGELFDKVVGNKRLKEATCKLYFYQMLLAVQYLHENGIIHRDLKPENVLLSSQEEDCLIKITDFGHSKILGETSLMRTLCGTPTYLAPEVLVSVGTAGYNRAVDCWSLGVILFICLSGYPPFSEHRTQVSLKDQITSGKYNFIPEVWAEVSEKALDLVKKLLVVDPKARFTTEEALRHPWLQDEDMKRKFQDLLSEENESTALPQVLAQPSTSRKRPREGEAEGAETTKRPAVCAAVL
Method: (§4) Other kinase IC50 determinations for CHK2 and FLT3 were performed using a commercial assay (Z'-Lyte, Invitrogen) or in-house with recombinant human CHK1 on a LabChip® EZ Reader II (PerkinElmer) or CDK1 in a DELFIA assay (PerkinElmer).

HT29 = assay: Mitosis induction assay (MIA), abrogation of etoposide-induced G2 checkpoint; type: cell-based; details: Homo sapiens, HT-29, mean±SD
Method: as §2

SW620 = assay: as above; type: cell-based; details: Homo sapiens, SW-620, mean±SD
Method: as §2

Calu6 = assay: as above; type: cell-based; details: Homo sapiens, Calu-6, mean±SD
Method: as §2

CDK1 = CDK1 (Homo sapiens, UniProt P06493); assay: CDK1 kinase IC50 determination (DELFIA / 33P radiometric); type: biochemical
CDK1, sequence (P06493 whole entry): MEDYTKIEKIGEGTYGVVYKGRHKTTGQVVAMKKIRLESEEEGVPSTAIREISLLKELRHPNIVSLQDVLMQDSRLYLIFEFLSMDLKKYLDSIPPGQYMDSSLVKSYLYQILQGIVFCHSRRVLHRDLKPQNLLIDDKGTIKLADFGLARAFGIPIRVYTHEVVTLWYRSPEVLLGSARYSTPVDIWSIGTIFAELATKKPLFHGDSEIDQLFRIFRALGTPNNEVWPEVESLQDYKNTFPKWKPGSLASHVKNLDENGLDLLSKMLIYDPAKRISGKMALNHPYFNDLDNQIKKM
CDK1, sequence (P14635 whole entry partner): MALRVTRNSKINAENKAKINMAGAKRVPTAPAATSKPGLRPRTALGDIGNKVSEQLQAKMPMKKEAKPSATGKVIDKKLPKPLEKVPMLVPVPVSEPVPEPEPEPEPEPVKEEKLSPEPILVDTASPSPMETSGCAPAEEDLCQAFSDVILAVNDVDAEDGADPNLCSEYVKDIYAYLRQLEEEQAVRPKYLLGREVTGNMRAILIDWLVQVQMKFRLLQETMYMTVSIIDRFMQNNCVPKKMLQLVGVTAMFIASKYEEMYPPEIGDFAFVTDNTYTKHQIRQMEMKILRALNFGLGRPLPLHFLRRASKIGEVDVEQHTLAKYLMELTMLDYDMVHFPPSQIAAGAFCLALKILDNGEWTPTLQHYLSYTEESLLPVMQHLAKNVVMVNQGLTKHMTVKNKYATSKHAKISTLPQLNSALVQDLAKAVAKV
Method: as §4

[6] = Pharmacokinetics in BALB/c mice; type: in vivo; details: for bioavailability: BALB/c, 10mg/kg p.o. vs i.v., read-out: oral bioavailability (F)
Method: as §3

[7] = test system: four human tumor cell lines; assay: SRB cytotoxicity, range over four cell lines; type: cell-based; details: read-out: GI50 single-agent, range
[8] = test system: Eμ-Myc driven B-cell lymphoma; assay: Eμ-Myc driven transgenic mouse transplant model of B-cell lymphoma; type: in vivo, mice; details: 150mg/kg p.o. once daily for 9 days
From the text: Transgenic Eμ-Myc mice which develop aggressive infiltrating lymphoma were established and monitored as previously described. To generate transgenic Eμ-Myc driven lymphoma allografts, tumor cells from 3 separate tumors were harvested, cells counted and injected via a tail vein. Six mice were set up per tumor to provide 3 control and 3 treated animals, giving a maximum of 9 mice per treatment group. Animals were monitored daily and continuously using RFID transponders to measure temperature, activity and water consumption as previously described. […] Bone marrow cellularity was also determined to check for tumor cell involvement. All mice were handled in compliance with local and national animal welfare guidelines.

[9] = test system: HT29 colon carcinoma cells; assay: Cell cycle analysis (BrdU/PI); type: cell-based, human
From the text: Cell cycle analysis using propidium iodide and bromodeoxyuridine staining was as described.

124 human kinases = assay: 33P radiometric kinase profiling; type: biochemical; details: 10μM, 124 kinases, ATP at Km
Plasma protein binding = type: in vitro ADME; details: mouse, nude mice
[10] = test system: Calu6 RAS mutant NSCLC human tumor xenograft; assay: Antitumor study, Calu6 RAS mutant NSCLC xenografts; type: in vivo, mice
Method: Compound tolerability and pharmacokinetic investigations were carried out in female BALB/c mice (Charles River). Human tumor xenografts were established s.c. in female CRTac:Ncr-Fox1(nu) athymic mice and treated as previously described [24, 28]. […] Initial treatment groups contained from 6 to 10 mice and animals were inspected daily and tumor size and volume measured every 2 or 3 days. Tumor volume and growth delay were determined as previously described [28].

[11] = Permeability across CaCo2 cell monolayer; type: in vitro ADME
[12] = test system: pS296 CHK1 in Calu6 xenograft tumors; assay: PD biomarkers in Calu6 xenograft tumors (western blot); type: in vivo, mice; details: Calu6 xenografts, 6h after last dose of CCT245737 150mg/kg p.o.
Method: (§5) Western blotting was carried out as described. ELISA assays for pS296 CHK1 and total CHK1 were developed and validated for use in vitro and in tumor homogenates. Tumor samples for ELISA and western blotting were lysed in CHAPS buffer (1% CHAPS in 150mM NaCl, 50mM Tris-HCl pH 8.0, 1mM EDTA, 0.2mM PMSF and 1:50 Sigma Phosphatase inhibitors 2 and 3 and 1:100 Sigma protease cocktail) and immunoblotted. ELISA assays were based on commercially available kits with modifications (Cell Signalling Technologies). For pS296 CHK1 detection the commercial pS317 CHK1 antibody was replaced with a pS296 CHK1 antibody (Cell Signalling Technology). Xenograft tumor homogenate was added in duplicate to 96 well plates (100μl containing 40ug protein) and quantification of the colorimetric readout was determined at 450nm using a PerkinElmer 2103 EnVision Multilabel plate reader.

[13] = test system: pS296 CHK1 in HT29 colon tumor cells; assay: Western blot of gemcitabine-induced biomarkers in cells; type: cell-based, human; details: added to gemcitabine
Method: as §5

[14] = test system: pS296 CHK1 in HT29 tumor xenografts; assay: PK-PD biomarker study in HT29 tumor xenografts; type: in vivo, mice; details: 50 or 100mg/kg p.o. 24h after gemcitabine 100mg/kg i.v.; P < 0.05
Method: as §5

SMILES: CCc1c2c(nc3ccc(OC(=O)N4CCC(N5CCCCC5)CC4)cc13)-c1cc3c(c(=O)n1C2)COC(=O)[C@]3(O)CC [irinotecan]
- growth delay ([1]; alone, 25mg/kg i.p. days 0,4,8, mean±SD, n = 6): 6.2 ± 4.6 days

SMILES: Nc1ccn([C@@H]2O[C@H](CO)[C@@H](O)C2(F)F)c(=O)n1 [gemcitabine]
- MTD [2]: 200 mg/kg
- growth delay ([1]; alone, 100mg/kg i.v. days 0,7,14, mean±SD (Figure 3A)): -0.6 ± 2.7 days
- growth delay ([1]; gemcitabine alone at the MTD of 200mg/kg i.v. (Figure 3B)): 6 days
- growth delay ([1]; gemcitabine alone, fixed dose 100mg/kg i.v. (Figure 3B)): 3 days
- growth delay ([3]; gemcitabine alone 100mg/kg i.v. days 0,4,8): 1.5 ± 2.3 days

SMILES: CN[C@@H]1C[C@H]2O[C@@](C)([C@@H]1OC)n1c3ccccc3c3c4c(c5c6ccccc6n2c5c31)C(=O)N[C@H]4O [UCN01]
- antitumor activity in Eμ-Myc model (Eμ-Myc driven lymphoma): clear evidence of tumor growth inhibition
- blood cell count (Eμ-Myc driven lymphoma): decreased blood cell count

SMILES: N#Cc1cnc(Nc2cc(NC[C@H]3CNCCO3)c(C(F)(F)F)cn2)cn1 [CCT245737, (R)-5-((4-((morpholin-2-ylmethyl)amino)-5-(trifluoromethyl)pyridin-2-yl)amino)pyrazine-2-carbonitrile]
- IC50 [4]: 30 to 220 nM
- growth delay ([1]; alone, 150mg/kg p.o. days 1,2,5,6,9,10 (irinotecan study), mean±SD): 1.0 ± 1.0 days
- growth delay ([1]; alone, 150mg/kg p.o. days 1,2,8,9,15,16, mean±SD): 0.3 ± 3.4 days
- concentration at 24 h [5]: ≥ 3000 nM
- IC50 (CHK2): 9030 nM
- body weight loss ([3]; combination with gemcitabine, day 9): 4.3%
- IC50 (HT29): 30 ± 12 nM
- IC50 (SW620): 220 ± 47 nM
- IC50 (Calu6): 84 ± 7 nM
- IC50 (CDK1): 1260 to 2440 nM
- kinetics in whole blood (AUC vs dose) ([6]; BALB/c mice): linear kinetics
- plasma clearance ([6]; BALB/c mice, 10mg/kg i.v.): 35 mL/min/kg
- volume of distribution ([6]; BALB/c mice, 10mg/kg i.v.): 0.19 L
- half-life ([6]; BALB/c mice, 10mg/kg i.v., plasma): 2.86 h
- bioavailability ([6]; female, plasma, oral, mouse): 100%
- bioavailability ([6]; female, plasma, po, mouse): 105%
- Kp ([6]; female, mouse, spleen, other: both routes of administration (i.v. and p.o.), 10 mg/kg, BALB/c mice, both routes of administration, read-out: spleen concentration relative to plasma): 10 to 25
- GI50 [7]: 410 to 5400 nM
- effects on normal tissues (lung, bone marrow, kidney) [8]: minimal effects
- tolerability (body weights) [8]: well tolerated
- weight of inguinal, brachial/axillary and mesenteric lymph nodes vs vehicle ([8]; P < 0.05): significantly reduced
- spleen weight ([8]; p < 0.01): increased significantly
- effect on etoposide-induced G2/M block ([9]; after etoposide 50μM × 1h, increasing concentrations, 24h): abrogated this G2/M block
- effect on cell cycle distribution, alone ([9]; up to 0.5μM for 24h): minimal effects
- number of kinases (including CHK1) with > 80% inhibition (124 human kinases): 12 kinases
- fraction unbound at 10 μM (Plasma protein binding): 0.244
- increase in tumor growth delay ([10]; CCT245737 150mg/kg p.o. added to gemcitabine 100mg/kg i.v. + carboplatin 5mg/kg i.p., P < 0.001): 9 days
- weight loss ([10]; combination with gemcitabine + carboplatin, nadir on day 3): 2%
- Papp ([11]; human, Caco-2, CaCo2 cell monolayer, read-out: cell permeability Pe): 25 ×10⁻⁶ cm/s
- active efflux by PGP ([11]; no asymmetry apical > basal or basal > apical): not a substrate for active efflux by PGP
- gemcitabine + carboplatin induced pS296 CHK1 signal in tumor [12]: completely abolished
- concentration causing marked loss of pS296 signal [13]: ≥ 0.5 μM
- concentration giving complete inhibition of pS296 signal [13]: ≥ 2 μM
- gemcitabine-induced pS296 CHK1 signal in tumor [14]: significantly reduced

Reference: paper PMC4823038 (Oncotarget, 2015)
